Results taken from the NIST ThermoML archive (doi:10.1021/je5003225).

Assays:
[1] = xn = mol fraction of the nth substance listed; conditions: 298.15 K, 101 kPa, Liquid, Vibrating tube method
[2] = Liquid; Ebulliometric method (Recirculating still)
[3] = refractive index (Na D-line) (dimensionless); conditions: 298.15 K; 101.33 kPa; Liquid; Standard Abbe refractometry

CCC(C)O (centres undefined) [butan-2-ol] + COC(C)=O
Conditions	mass density [kg/m3]
[1], x2 = 0	802.5

CCC(C)O (centres undefined) [butan-2-ol] + CCOC(C)=O
[1]
Conditions	mass density [kg/m3]
x2 = 0	802.5
x2 = 0.0415	805.6
x2 = 0.0917	809.5
x2 = 0.1482	813.9
x2 = 0.208	818.7
x2 = 0.257	822.8
x2 = 0.2963	826.2
x2 = 0.3488	830.7
x2 = 0.3914	834.5
x2 = 0.4397	838.9
x2 = 0.4905	843.5
x2 = 0.5313	847.3
x2 = 0.6	853.8
x2 = 0.6539	859
x2 = 0.7031	863.8
x2 = 0.741	867.5
x2 = 0.7953	873
x2 = 0.8528	878.9
x2 = 0.8891	882.6
x2 = 0.9484	889

CCOC(C)=O [ethyl acetate] + CCC(C)O
Conditions	mass density [kg/m3]
[1], x1 = 1	894.5

COC(C)=O [methyl ethanoate] + CCC(C)O
[1]
Conditions	mass density [kg/m3]
x1 = 0.058	807.2
x1 = 0.1719	817.3
x1 = 0.2756	827.5
x1 = 0.3391	834.2
x1 = 0.4544	847.3
x1 = 0.4714	849.3
x1 = 0.5051	853.4
x1 = 0.5458	858.5
x1 = 0.593	864.5
x1 = 0.6822	876.6
x1 = 0.799	893.7
x1 = 0.8576	902.9
x1 = 0.8788	906.3
x1 = 0.9586	919.9
x1 = 1	927.3

CCC(C)O (centres undefined) [butan-2-ol]
Conditions	Normal boiling temperature [°C]	refractive index
[2]	99.61	–
[3]	–	1.3949
